Counter-ions that a name gives are not always drawn.
Each compound was assayed against recombinant human AMPK complex 1 (containing α1β1γ1) (Homo sapiens, UniProt Q13131+Q9Y478) (assay: […] (in vitro AMPK activation assay)). Conditions: read-out: % Maximum AMP Activation of human AMPK Complex 1, recombinant human AMPK complex 1 (α1β1γ1); basal activity subtracted.
Assay type: biochemical
Method: Recombinant viruses were generated by cotransfection of AMPK/pBacPak9 clones with Baculogold baculovirus DNA (Pharmingen) in spodoptera frugiperda 21 cells according to the manufacturer's instructions. Each round of virus amplification was performed for 5 days in Grace's medium containing 10% serum. Virus that had been subjected to three rounds of amplification was used for all protein production procedures. To express the AMPK complex, sf21 cells were adapted to serum free medium (SF900 II, Invitrogen) by sequential dilution from serum containing stocks into SF900 II medium and maintained in shaker flasks at 90 rpm at 27° C. The recombinant AMPK enzyme complex was produced by triple infection, one recombinant virus for each of the subunits, in sf21 cells under serum free conditions. […] Cells were harvested by centrifugation at 10,000×g for 15 minutes after 72 hours of infection with viruses. The insect cell pellet from 2 liters of culture was resuspended in 50 ml lysis buffer (20 mM Tris-HCl, 50 mM NaCl, 50 mM NaF, 30 mM Na PPi, 0.25 M sucrose, 10 mM ZnCl2, 2 mM DTT, 0.4 mg/ml digitonin) and subjected to two cycles of freeze-thaw lysis in a dry-ice ethanol bath. Insoluble material was removed by centrifugation at 10,000×g and the supernatant was fractionated with use of polyethylene glycol (PEG).
The total in vitro AMPK activation assay volume is 50 μl in a 96-well plate. […] The reaction was initiated with addition of the enzyme. After 30-minute incubation at 30° C., the reaction was stopped by addition of 80 μl 1% H3PO4. Aliquots (100 μl) were transferred to 96-well MultiScreen plates (MAPHNOB50; Millipore Corp., Bedford, Mass., USA). The plate was washed three times with 1% H3PO4 followed by detection in a Top-count. The counts per minute from the basal activity (the reaction without activator) was subtracted from each well and the data were expressed as % maximum AMP activation followed by EC50 calculation.

Chain of recombinant human AMPK complex 1 (containing α1β1γ1) (Q13131 whole entry): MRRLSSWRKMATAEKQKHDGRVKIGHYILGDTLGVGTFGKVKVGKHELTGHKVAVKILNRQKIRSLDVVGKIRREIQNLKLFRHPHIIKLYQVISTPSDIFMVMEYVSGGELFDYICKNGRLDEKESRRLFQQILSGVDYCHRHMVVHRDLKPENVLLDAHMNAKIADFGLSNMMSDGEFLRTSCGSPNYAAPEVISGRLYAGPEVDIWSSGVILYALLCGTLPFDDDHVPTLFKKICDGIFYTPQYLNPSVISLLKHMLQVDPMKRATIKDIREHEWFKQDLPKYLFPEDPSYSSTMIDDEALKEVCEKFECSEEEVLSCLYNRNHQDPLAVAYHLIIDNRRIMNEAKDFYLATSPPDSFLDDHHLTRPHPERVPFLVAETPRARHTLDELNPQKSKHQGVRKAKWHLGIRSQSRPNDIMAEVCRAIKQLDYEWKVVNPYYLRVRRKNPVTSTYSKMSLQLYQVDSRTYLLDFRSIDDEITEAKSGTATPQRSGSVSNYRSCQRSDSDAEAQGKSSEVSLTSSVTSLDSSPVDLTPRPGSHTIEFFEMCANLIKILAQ
Chain of recombinant human AMPK complex 1 (containing α1β1γ1) (Q9Y478 whole entry): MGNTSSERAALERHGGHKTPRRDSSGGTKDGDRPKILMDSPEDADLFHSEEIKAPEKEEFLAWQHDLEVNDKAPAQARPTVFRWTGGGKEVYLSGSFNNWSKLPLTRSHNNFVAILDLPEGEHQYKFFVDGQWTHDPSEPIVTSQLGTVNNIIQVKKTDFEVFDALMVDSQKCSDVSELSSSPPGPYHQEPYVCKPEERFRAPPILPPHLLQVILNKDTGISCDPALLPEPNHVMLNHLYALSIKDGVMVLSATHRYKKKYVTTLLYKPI
Chain of recombinant human AMPK complex 1 (containing α1β1γ1) (P54619 whole entry partner): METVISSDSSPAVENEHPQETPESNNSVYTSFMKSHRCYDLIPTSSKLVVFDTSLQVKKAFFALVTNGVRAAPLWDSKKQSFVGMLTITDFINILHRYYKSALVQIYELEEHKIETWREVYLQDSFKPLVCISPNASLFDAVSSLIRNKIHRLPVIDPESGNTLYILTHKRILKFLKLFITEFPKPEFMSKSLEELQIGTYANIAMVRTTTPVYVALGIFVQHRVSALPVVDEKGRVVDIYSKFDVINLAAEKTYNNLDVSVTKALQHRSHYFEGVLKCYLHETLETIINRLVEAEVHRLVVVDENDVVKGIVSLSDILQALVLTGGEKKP

Row | Compound | Emax
1 | CCCCc1ccc(-c2cc3nc(Oc4ccc(C)c(C(=O)O)c4)[nH]c3cc2Cl)cc1 [Example 344, Ammonium 5-{[5-(4-butylphenyl)-6-chloro-1H-benzimidazol-2-yl]oxy}-2-methylbenzoate] | > 80%

Same assay, conditions: recombinant human AMPK complex 1 (α1β1γ1); basal activity subtracted; read-out: % Maximum AMP Activation of human AMPK Complex 1

Row | Compound | Emax
2 | Cc1ccc(Oc2nc3cc(C#Cc4ccc(-c5cnco5)cc4)c(Cl)cc3[nH]2)cc1C(=O)O [Example 120, 5-[6-Chloro-5-(4-oxazol-5-yl-phenylethynyl)-1H-benzoimidazol-2-yloxy]-2-methyl-benzoic acid] | > 80%
3 | COC(=O)c1cc(Oc2nc3cc(-c4ccc(-c5cccnc5)cc4)c(Cl)cc3[nH]2)ccc1C [Example 171, 5-[6-Chloro-5-(4-pyridin-3-yl-phenyl)-1H-benzoimidazol-2-yloxy]-2-methyl-benzoic acid methyl ester] | > 80%
4 | COC(=O)c1cc(Oc2nc3cc(-c4ccc(-c5ccc(OC)nc5)cc4)c(Cl)cc3[nH]2)cc(C)c1C [Example 314, 5-{6-Chloro-5-[4-(6-methoxy-pyridin-3-yl)-phenyl]-1H-benzoimidazol-2-yloxy}-2,3-dimethyl-benzoic acid methyl ester] | > 80%
5 | Cc1ccc(Oc2nc3cc(-c4ccc5c(C)cn(C(=O)OC(C)(C)C)c5c4)c(Cl)cc3[nH]2)cc1C(=O)O [Example 290, 6-[2-(3-Carboxy-4-methyl-phenoxy)-6-chloro-1H-benzoimidazol-5-yl]-3-methyl-indole-1-carboxylic acid tert butyl ester] | > 80%
6 | Cc1ccc(Oc2nc3cc(-c4ccc(-c5c(C)n[nH]c5C)cc4)c(Cl)cc3[nH]2)cc1C(=O)O [Example 203, 5-({6-chloro-5-[4-(3,5-dimethyl-1H-pyrazol-4-yl)phenyl]-1H-benzimidazol-2-yl}oxy)-2-methylbenzoic acid] | > 80%
7 | Cc1ccc(Oc2nc3cc(-c4ccc(/C(N)=N/O)cc4)c(Cl)cc3[nH]2)cc1C(=O)O [Example 177, 5-{6-Chloro-5-[4-(N-hydroxycarbamimidoyl)-phenyl]-1H-benzoimidazol-2-yloxy}-2-methyl-benzoic acid] | > 80%
8 | Cc1ccc(Oc2nc3cc(-c4ccc5c(c4)CCN5CCO)c(Cl)cc3[nH]2)cc1C(=O)O [Example 319, 5-({6-chloro-5-[1-(2-hydroxyethyl)-2,3-dihydro-1H-indol-5-yl]-1 H-benzimidazol-2-yl}oxy)-2-methylbenzoic acid] | > 80%
9 | Cc1ccc(Oc2nc3cc(C#Cc4ccc(-c5csnn5)cc4)c(Cl)cc3[nH]2)cc1C(=O)O [Example 85, 5-[6-Chloro-5-(4-[1,2,3]thiadiazol-4-yl-phenylethynyl)-1H-benzoimidazol-2-yloxy]-2-methyl-benzoic acid] | > 80%
10 | COC(=O)c1cc(Oc2nc3cc(C#Cc4ccc(OC)cc4)c(Cl)cc3[nH]2)ccc1C [Example 122, 5-[6-Chloro-5-(4-methoxy-phenylethynyl)-1H-benzoimidazol-2-yloxy]-2-methyl-benzoic acid methyl ester] | > 80%
11 | Cc1ccc(C#Cc2cc3nc(Oc4ccc(C)c(C(=O)O)c4)[nH]c3cc2Cl)cc1 [Example 45, 5-(6-Chloro-5-p-tolyethylnyl-1H-benzoimidazol-2-yloxy)-2-methyl-benzoic acid] | > 80%
12 | Cc1cc(Oc2nc3cc(-c4ccc(-c5ccccc5)cc4)c(Cl)cc3[nH]2)cc(O)c1C(=O)O [Example 27, 4-(5-Biphenyl-4-yl-6-chloro-1H-benzoimidazol-2-yloxy)-2-hydroxy-6-mehtyl-benzoic acid] | > 80%
13 | CCn1ccc2cc(-c3cc4nc(Oc5ccc(C)c(C(=O)O)c5)[nH]c4cc3Cl)ccc21 [Example 254, 5-[6-Chloro-5-(1-ethyl-1H-indol-5-yl)-1H-benzoimidazol-2-yloxy]-2-methyl-benzoic acid] | > 80%
14 | Cc1ccc(Oc2nc3cc(-c4ccc(C5CCCC5)cc4)c(Cl)cc3[nH]2)cc1C(=O)O [Example 258, 2-(3-carboxy-4-methylphenoxy)-6-chloro-5-(4-cyclopentylphenyl)-1H-3,1-benzimidazol-3-ium trifluoroacetate] | > 80%
15 | Cc1ccc(Oc2nc3cc(-c4ccc5c(c4)CN(C)C5)c(Cl)cc3[nH]2)cc1C(=O)O [Example 300, 5-[2-(3-carboxy-4-methylphenoxy)-6-chloro-1H-benzimidazol-5-yl]-2-methyl-2,3-dihydro-1H-isoindolium trifluoroacetate] | > 80%
16 | Cc1cc2cc(-c3cc4nc(Oc5ccc(C)c(C(=O)O)c5)[nH]c4cc3Cl)ccc2[nH]1 [Example 261, 5-{[6-chloro-5-(2-methyl-1H-indol-5-yl)-1H-benzimidazol-2-yl]oxy}-2-methylbenzoic acid] | > 80%
17 | Cc1ccc(Oc2nc3cc(-c4ccc5c(c4)CNC5=O)c(Cl)cc3[nH]2)cc1C(=O)O [Example 305, 5-[6-Chloro-5-(1-oxo-2,3-dihydro-1H-isoindol-5-yl)-1H-benzoimidazol-2-yloxy]-2-methyl-benzoic acid] | > 80%
18 | Cc1ccc(Oc2nc3cc(C#Cc4ccc(C(O)C5CC5)cc4)c(Cl)cc3[nH]2)cc1C(=O)O (stereo not shown) [Example 88, 5-{6-Chloro-5-[4-(cyclopropyl-hydroxy-methyl)-phenylethynyl]-1H-benzoimidazol-2-yloxy}-2-methyl-benzoic acid] | > 80%
19 | Cc1ccc(Oc2nc3cc(-c4ccc(N5CCOCC5)cc4)c(F)cc3[nH]2)cc1C(=O)O [Example 247, 5-[6-Fluoro-5-(4-morpholin-4-yl-phenyl)-1H-benzoimidazol-2-yloxy]-2-methyl-benzoic acid] | > 80%
20 | COC(=O)c1ccc(-c2cc3nc(Oc4ccc(C)c(C(=O)O)c4)[nH]c3cc2Cl)c2ccn(C)c12 [Example 269, 4-[2-(3-Carboxy-4-methyl-phenoxy)-6-chloro-1H-benzoimidazol-5-yl]-1-methyl-1H-indole-7-carboxylic acid methyl ester] | > 80%
21 | Cc1ccc(Oc2nc3cc(C#Cc4ccc(-c5nc[nH]n5)cc4)c(Cl)cc3[nH]2)cc1C(=O)O [Example 78, 5-{6-Chloro-5-[4-(1H-[1,2,4]triazol-3-yl)-phenylethynyl]-1H-benzoimidazol-2-yloxy}-2-methyl-benzoic acid] | > 80%
22 | O=C(O)c1cc(Oc2nc3cc(-c4ccc(-c5ccccc5O)cc4)c(Cl)cc3[nH]2)cc(C(=O)O)c1 [Example 54, 5-[6-Chloro-5-(2′-hydroxy-biphenyl-4-yl)-1H-benzoimidazol-2-yloxy]-isophthalic acid] | > 80%
23 | Cc1ccc(Oc2nc3cc(C#Cc4ccc(F)cc4)c(Cl)cc3[nH]2)cc1C(=O)O [Example 113, 5-[6-Chloro-5-(4-fluoro-phenylethynyl)-1H-benzoimidazol-2-yloxy]-2-methyl-benzoic acid] | > 80%
24 | Cc1ccc(Oc2nc3cc(-c4ccc5ccccc5c4)c(Cl)cc3[nH]2)cc1C(=O)O [Example 66, 5-{[6-chloro-5-(2-naphthyl)-1H-benzimidazol-2-yl]oxy}-2-methylbenzoic acid] | > 80%
25 | Cc1ccc(Oc2nc3cc(-c4ccc5c(c4)cc(CO)n5C)c(Cl)cc3[nH]2)cc1C(=O)O [Example 274, 5-[6-Chloro-5-(2-hydroxymethyl-1-methyl-1H-indol-5-yl)-1H-benzoimidazol-2-yloxy]-2-methyl-benzoic acid] | > 80%
26 | Cc1ccc(Oc2nc3cc(-c4ccc(-c5cccc(F)c5)cc4)c(Cl)cc3[nH]2)cc1C(=O)O [Example 185, 5-{[6-chloro-5-(3′-fluorobiphenyl-4-yl)-1H-benzimidazol-2-yl]oxy}-2-methylbenzoic acid] | > 80%
27 | Cc1ccc(Oc2nc3cc(-c4ccc(-c5ccn[nH]5)cc4)c(F)cc3[nH]2)cc1C(=O)O [Example 246, 5-{6-Fluoro-5-[4-(2H-pyrazol-3-yl)-phenyl]-1H-benzoimidazol-2-yloxy}-2-methyl-benzoic acid] | > 80%
28 | COc1ccc(-c2ccc(-c3cc4nc(Oc5ccc(C)c(C(=O)O)c5)[nH]c4cc3Cl)cc2)cc1 [Example 172, 5-[6-Chloro-5-(4′-methoxy-biphenyl-4-yl)-1H-benzoimidazol-2-yloxy]-2-methyl-benzoic acid] | > 80%

Same assay, conditions: recombinant human AMPK complex 1 (α1β1γ1); read-out: EC50

Row | Compound | EC50
29 | Cc1ccc(Oc2nc3cc(-c4cc5ccn(CCO)c5cc4F)c(Cl)cc3[nH]2)cc1C(=O)O [Example 325, 5-({6-chloro-5-[6-fluoro-1-(2-hydroxyethyl)-1H-indol-5-yl]-1H-benzimidazol-2-yl}oxy)-2-methylbenzoic acid] | 5 nM
30 | Cc1ccc(Oc2nc3cc(-c4ccc(-c5ccncc5)cc4)c(Cl)cc3[nH]2)cc1C(=O)O [Example 168] | 5 nM
31 | Cc1ccc(Oc2nc3cc(-c4ccc(-c5ccccc5O)cc4)c(F)cc3[nH]2)cc1C(=O)O [Example 232, 5-{[6-fluoro-5-(2′-hydroxybiphenyl-4-yl)-1H-benzimidazol-2-yl]oxy}-2-methylbenzoic acid] | 1 nM

Source: patent US8394969B2, “Cyclic benzimidazole derivatives useful as anti-diabetic agents” (Merck Sharp & Dohme Corp., priority 2008, dated 2013)
